Reference: patent US4803203A, “Phenyl and heterocyclic piperazinyl alkoxy-benzheterocyclic compounds as antipsychotic agents” (Warner-Lambert Company, priority 1987, dated 1989)
Where two headings read alike, the source gives them in different places.

Experiments:
[1] = target: T1, dopamine receptors (striatal membranes) (Rattus norvegicus, UniProt P61169); experiment: [^3 H]Haloperidol binding assay; set-up: species or system rat (Long-Evans hooded rats); conditions: 0.6 nM [^3 H]-haloperidol, pH 7.6, 25° C., 40 minutes
T1 construct: striatal membranes prepared from Long-Evans hooded rats; from tissue; host or cells: corpus striatum of Long-Evans hooded rats (membrane homogenate)
T1 sequence (P61169 whole entry): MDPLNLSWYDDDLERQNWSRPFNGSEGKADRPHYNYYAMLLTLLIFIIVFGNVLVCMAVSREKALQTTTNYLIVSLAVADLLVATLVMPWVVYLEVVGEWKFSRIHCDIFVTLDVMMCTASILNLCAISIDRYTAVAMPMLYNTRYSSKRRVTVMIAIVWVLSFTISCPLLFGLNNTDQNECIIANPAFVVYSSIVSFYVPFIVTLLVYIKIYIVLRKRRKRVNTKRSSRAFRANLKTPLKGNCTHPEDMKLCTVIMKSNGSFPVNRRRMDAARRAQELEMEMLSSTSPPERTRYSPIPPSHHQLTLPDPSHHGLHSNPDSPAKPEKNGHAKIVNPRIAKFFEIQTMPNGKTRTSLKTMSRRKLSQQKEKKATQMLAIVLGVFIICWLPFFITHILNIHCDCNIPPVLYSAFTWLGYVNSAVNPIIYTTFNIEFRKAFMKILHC
Method: The antipsychotic activity of representative compounds of the invention was also established by the [^3 H]haloperidol binding assay method which is described in Mol. Pharmacol. 12, 800 (1976) and reports excellent correlation between the amount of binding and clinical potency.
[^3 H]Haloperidol Binding Assay. The relative affinities of compounds for dopamine receptors were evaluated on the basis of their ability to displace [^3 H]-haloperidol from striatal membranes prepared from Long-Evans hooded rats. Rats were decapitated; the brains were removed, and the corpus striata were dissected. The corpus striata were homogenized in 40 volumes of […] Tris buffer (pH 7.6) and centrifuged. Pellets were rehomogenized in 50 volumes of the same buffer and used for the binding assay. Incubations were carried out in 10 ml of […] Tris-HCl buffer (pH 7.6) containing 2 mg/ml of original wet tissue weight of homogenate, 100 μl of test agent or solvent, and 0.6 nM of [^3 H]-haloperidol. Nonspecific binding was determined in the presence of 0.1 μM (+)-butaclamol. Samples were incubated in reciprocating water bath at 25° C. for 40 minutes. Incubation was terminated by rapid filtration under reduced pressure through glass fiber filters (Whatman GF/B). The filters were rinsed three times with 10 ml of Tris-HCl buffer. The filters were placed in 10 ml of scintillation cocktail (Beckman Ready-Solv HP) and shaken for one hour. Radioactivity retained on the filter was determined by liquid scintillation spectrophotometry. IC50 s when determined were calculated from a nonlinear computer curve, fit on the data from […], each done in triplicate.

[2] = test system: spontaneous locomotion (Swiss-Webster male mice); experiment: Inhibition of locomotor activity-screen fall-off test; type: in vivo, mouse (Swiss-Webster male mice); conditions: Mus musculus, ip, 1 h, intraperitoneal, one hour prior to testing, locomotion accumulated for one hour
Method: ANIMALS: Nine unfasted Swiss-Webster male mice (Buckberg Labs) weighing 20-30 g are equally divided into three groups for each drug dose to be tested. That is, data for each dose level was generated by three separate groups of three mice each.
DRUGS: A minimum of three dose levels (10, 30, and 100 mg/kg) are tested for each drug. Treatments are administered intraperitoneally one hour prior to testing. All dosages are calculated as parent compound. Compounds are dissolved or suspended in 0.2% methocel. Control animals are injected with methocel.
TESTING: A two-part testing procedure is started one hour postinjection. First, the screen test is performed (see Pharmac Biochem Behav 6, 351-353, 1977). Briefly, this test consists of placing mice on individual wire screens which are then rotated 180° at the start of a 60-second observation period. The number of mice falling off the inverted screen is recorded.
Immediately following the screen test, the final phase of testing is initiated by placing each group of three mice in one actophotometer (Life Sciences, 22, 1067-1076, 1978). The actophotometer consists of a cylindrical chamber whose center is occupied by another cylinder which contains the illumination for six photocells located on the perimeter of the chamber. Six light-beam interruptions equal one count. Locomotor activity is recorded by computer at ten-minute intervals for 60 minutes.
DATA: The data obtained from the screen test are expressed as percent of mice falling off the screen. Data derived from locomotor activity of drug-treated mice are compared to the activity of vehicle-treated animals and are expressed as percent inhibition of spontaneous locomotion. All percentages reported for inhibition of locomotion are based upon data accumulated for one hour. Both phases of testing are graded: A=60-100%; C=31-59%; and N=0-30%. An overall dose rating is obtained by the following criteria.
All other combinations = N
Utilizing this procedure, an overall dose rating of A was obtained for the noted compounds at the indicated dose, ED50 s, as reported in Table 1.

[3] = rat striatal membranes, read-out: ^3 H-Haloperidol Binding IC50
[4] = ^3 H-Haloperidol Binding IC50, rat striatal membranes

Row | SMILES | IC50 [1, 3] | ED50 [2] | IC50 [1, 4]
1 | c1ccc(N2CCN(CCCOc3ccc4ccoc4c3)CC2)cc1 [Example 5, 1-[3-[6-Benzofuranyloxy]propyl]-4-phenylpiperazine] | 500 nM | 8.8 mg/kg | –
2 | CC1(C)CC(=O)c2ccc(OCCCN3CC=C(c4ccccc4)CC3)cc2O1 [Example 2A, 7-[3-[3,6-dihydro-4-phenyl-1(2H)-pyridinyl)propoxy]-2,3-dihydro-2,2-dimethyl-4H-benzopyran-4-one] | – | 4.8 mg/kg | < 100 nM
3 | c1ccc(N2CCN(CCCOc3cccc4cnccc34)CC2)nc1 [Example 2P, 5-[3-[4-(2-pyridinyl)-1-piperazinyl]propoxy]isoquinoline] | 645 nM | 3 mg/kg | –
4 | C1=C(c2ccccc2)CCN(CCCCOc2cccc3[nH]ccc23)C1 [Example 2G, 4-[4-(3,6-dihydro-4-phenyl-1(2H)-pyridinyl)butoxy]-1H-indole] | – | 1.4 mg/kg | 50 nM
5 | Oc1nccc2c(OCCCN3CCN(c4ccccn4)CC3)cccc12 [Example 2W, 5-[3-[4-(2-pyridinyl)-1-piperazinyl]propoxy]-1-isoquinolinol] | 651 nM | 6.1 mg/kg | –
6 | C1=C(c2ccccc2)CCN(CCCCOc2ccc3ncccc3c2)C1 [Example 2M, 6-[4-(3,6-dihydro-4-phenyl-1(2H)-pyridinyl)butoxy]quinoline] | – | 1.1 mg/kg | 17 nM
7 | c1ccc(N2CCN(CCCOc3ccc4cccnc4c3)CC2)nc1 [Example 2T, 7-[3-[4-(2-pyridinyl)-1-piperazinyl]propoxy]quinoline] | 230 nM | 0.17 mg/kg | –
8 | c1cnc(N2CCN(CCCCOc3cccc4ncccc34)CC2)nc1 [Example 2S, 5-[4-[4-(2-pyrimidinyl)-1-piperazinyl]butoxy]quinoline] | 184 nM | 7.7 mg/kg | –
9 | c1cnc(N2CCN(CCCCOc3ccc4ncccc4c3)CC2)nc1 [Example 2L, 6-[4-[4-(2-pyrimidinyl)-1-piperazinyl]butoxy]quinoline] | 50 nM | 0.9 mg/kg | –
10 | c1ccc(N2CCN(CCCOc3ccc4[nH]cnc4c3)CC2)cc1 [Example 3, 5-[3-(4-Phenylpiperazinyl)propyloxy]-1H-benzimidazole] | – | 4.9 mg/kg | 120 nM
11 | c1cnc(N2CCN(CCCOc3ccc4cccnc4c3)CC2)nc1 [Example 2V, 7-[3-[4-(2-pyrimidinyl)-1-piperazinyl]propoxy]quinoline] | 900 nM | 1 mg/kg | –
12 | O=C1COc2cc(OCCCN3CC=C(c4ccccc4)CC3)ccc21 [Example 2C] | – | 3.5 mg/kg | < 100 nM
13 | O=C1COc2cc(OCCCN3CCN(c4ccccc4)CC3)ccc21 [Example 2B, 6-[3-(4-phenyl-1-piperazinyl)propoxy]-3-(2H)-benzofuranone] | 100 nM | 3.7 mg/kg | –
14 | C1=C(c2ccccc2)CCN(CCCOc2cccc3cnccc23)C1 [Example 2O, 5-[3-(3,6-dihydro-4-phenyl-1(2H)-pyridinyl)propoxy]isoquinoline] | – | 0.18 mg/kg | 33 nM
15 | C1=C(c2ccccc2)CCN(CCCCOc2ccc3[nH]ccc3c2)C1 [Example 2H, 5-[4-(3,6-dihydro-4-phenyl-1(2H)-pyridinyl)butoxy]-1H-indole] | – | 0.5 mg/kg | 10 nM
16 | C1=C(c2ccccc2)CCN(CCCOc2cccc3[nH]ccc23)C1 [Example 2F, 4-[3-(3,6-dihydro-4-phenyl-1(2H)-pyridinyl)propoxy]-1H-indole] | – | 2.5 mg/kg | 40 nM
17 | C1=C(c2ccccc2)CCN(CCCOc2ccc3cc[nH]c3c2)C1 [Example 2I, 6-[3-(3,6-dihydro-4-phenyl-1(2H)-pyridinyl)propoxy]-1H-indole] | – | 2.8 mg/kg | 100 nM
18 | c1cnc(N2CCN(CCCCOc3cccc4ncccc34)CC2)nc1 [Example 2N, 5-[4-[4-(2-pyrimidinyl)-1-piperazinyl]butoxy]quinoline] | 180 nM | – | –

Now from value to compound, other results behind:

Row | IC50 [1, 3] | SMILES | ED50 [2] | IC50 [1, 4]
19 | 947 nM | c1cnc(N2CCN(CCCOc3cccc4cnccc34)CC2)nc1 [Example 2R, 5-[3-[4-(2-pyrimidinyl)-1-piperazinyl]propoxy]isoquinoline] | 19.5 mg/kg | –
20 | 50 nM | c1ccc(N2CCN(CCCOc3ccc4cccnc4c3)CC2)cc1 [Example 2U, 7-[3-(4-phenyl-1-piperazinyl)propoxy]quinoline] | 0.1 mg/kg | –
21 | 206 nM | c1ccc(N2CCN(CCCOc3cccc4cnccc34)CC2)cc1 [Example 2Q, 5-[3-(4-phenyl-1-piperazinyl)propoxy]isoquinoline] | 0.29 mg/kg | –
22 | 200 nM | c1cnc(N2CCN(CCCOc3ccc4cc[nH]c4c3)CC2)nc1 [Example 2J, 6-[3-[4-(2-pyrimidinyl)-1-piperazinyl]propoxy]-1H-indole] | 3.2 mg/kg | –
23 | 1000 nM | O=C1COc2ccc(OCCCN3CCN(c4ncccn4)CC3)cc2N1 [Example 2E, 6-[3-[4-(2-pyrimidinyl)-1-piperazinyl]propoxy]-2H-1,4-benzoxazine-3(4H)-one] | 1 mg/kg | –
24 | 70 nM | c1ccc(N2CCN(CCCOc3ccc4c(c3)OCCC4)CC2)cc1 [Example 2D, 1-[3-[(3,4-dihydro-2H-1-benzopyran-7-yl)oxy]propyl]-4-phenylpiperazine] | 2.7 mg/kg | –
25 | 300 nM | CC1(C)CC(=O)c2ccc(OCCCN3CCN(c4ccccc4)CC3)cc2O1 [Example 1, 2,3-Dihydro-2,2-dimethyl-7-(3-(4-phenyl)-1-piperizinyl)propoxy-4H-benzopyran-4-one] | 5.9 mg/kg | –
26 | 431 nM | O=C1NCCc2c(OCCCN3CCN(c4ccccn4)CC3)cccc21 [Example 2X] | 4.4 mg/kg | –
27 | 160 nM | O=C1Cc2cc(OCCCN3CCN(c4ccccc4)CC3)ccc2N1 [Example 4, 1,3-dihydro-5-[3-(4-phenyl-1-piperazinyl)propoxy]-2H-indole-2-one] | 0.4 mg/kg | –
28 | 90 nM | c1ccc(N2CCN(CCCOc3ccc4ncccc4c3)CC2)cc1 [Example 2K, 6-[3-(4-phenyl-1-piperazinyl)propoxy]-quinoline] | 0.5 mg/kg | –
